Data reported in PMC10967822, “Antimicrobial Indole-3-Carboxamido-Polyamine Conjugates Target Bacterial Membranes and Are Antibiotic Potentiators” (Biomolecules, 2024).
Values after ≈ are worked out from the molar mass of the structure shown.

What was measured:
[1] = test system: A. baumannii ATCC 19606; experiment: MIC, broth microdilution (CO-ADD), A. baumannii; assay type: cell-based, Acinetobacter baumannii; details: Acinetobacter baumannii, ATCC19606, top dose 32 µg/mL
[2] = test system: K. pneumoniae ATCC 700603; experiment: MIC, broth microdilution (CO-ADD), K. pneumoniae; details: top dose 32 µg/mL
[3] = test system: E. coli ATCC 25922; experiment: MIC, broth dilution, E. coli; assay type: cell-based, Escherichia coli; details: Escherichia coli, ATCC25922; E. coli ATCC 25922, 18 h
[4] = Cytotoxicity assay (resazurin); assay type: cell-based; details: human, HEK293 cells, mean n = 2
[5] = test system: MRSA ATCC 43300; experiment: MIC, broth microdilution (CO-ADD), MRSA; assay type: cell-based, methicillin-resistant S. aureus; details: Staphylococcus aureus; MRSA ATCC 43300; top dose 32 µg/mL; read-out: MIC MRSA
[6] = test system: P. aeruginosa ATCC 27853; experiment: Doxycycline potentiation against P. aeruginosa; assay type: cell-based, Pseudomonas aeruginosa; details: doxycycline at 2 µg/mL (4.5 µM); for Dox/Pa fold-change (intrinsic MIC / combination MIC): P. aeruginosa ATCC 27853; for Dox/Pa: concentration required to restore doxycycline activity (combination MIC): P. aeruginosa ATCC 27853, mean n = 3
Source text: (§1) These measurements were independently repeated in triplicate.

[7] = test system: human red blood cells; experiment: Hemolytic assay; assay type: cell-based; details: 10% hemolytic activity, mean n = 2
Outline: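 Compounds were applied to saline-washed human red blood cells at 0.5 × 10^8 cells/mL, 37 °C, 1 h. Lysis was measured by supernatant absorbance at 405 nm, and concentrations giving 10% and 50% haemolysis were obtained by variable-slope curve fitting.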

[8] = test system: E. coli ATCC 25922; experiment: Erythromycin potentiation against E. coli; assay type: cell-based, Escherichia coli; details: erythromycin at 2 µg/mL (2.7 µM); for Erythro/Ec fold-change (intrinsic MIC / combination MIC): E. coli; for Erythro/Ec: concentration required to restore erythromycin activity (combination MIC): mean n = 3
Source text: as §1

[9] = test system: C. neoformans ATCC 208821; experiment: Antifungal MIC (CO-ADD), C. neoformans; assay type: cell-based; details: Cryptococcus neoformans, ATCC208821, top dose 32 µg/mL
Outline: (§2)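 MIC for C. neoformans determined by OD570–600 following a further 3 h with resazurin (0.006% final), whereas C. albicans was read directly at OD530. Both grown static in YNB broth at 2.5 × 10^3 CFU/mL final inoculum, 35 °C for 36 h, from colonies cultured on YPD agar 3 days at 30 °C.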

[10] = test system: C. albicans ATCC 90028; experiment: Antifungal MIC (CO-ADD), C. albicans; assay type: cell-based; details: Candida albicans, ATCC90028, top dose 32 µg/mL
Outline: as §2

[11] = test system: P. aeruginosa ATCC 27853; experiment: MIC, broth dilution, P. aeruginosa; assay type: cell-based, Pseudomonas aeruginosa; details: Pseudomonas aeruginosa, ATCC27853; P. aeruginosa ATCC 27853, 18 h; read-out: MIC Pa
[12] = test system: S. aureus ATCC 25923; experiment: MIC, broth dilution, S. aureus; assay type: cell-based, Staphylococcus aureus; details: Staphylococcus aureus, ATCC25923; S. aureus ATCC 25923, 18 h; read-out: MIC Sa

Row | Structure (SMILES) | MIC [1] [µM] | MIC Kp [2] [µM] | MIC [3] [µM] | IC50 at 20 h [4] [µM] | MIC [5] [µM] | Dox/Pa fold-change (intrinsic MIC / combination MIC) [6] [fold] | Dox/Pa: concentration required to restore doxycycline activity (combination MIC) [6] [µM] | Hemolysis HC10 [7] [µM] | Erythro/Ec fold-change (intrinsic MIC / combination MIC) [8] [fold] | Erythro/Ec: concentration required to restore erythromycin activity (combination MIC) [8] [µM] | MIC [9] [µM] | MIC [10] [µM] | MIC [11] [µM] | MIC [12] [µM]
1 | Cc1ccc2[nH]cc(C(=O)NCCCNCCCCCCCCCCCCNCCCNC(=O)c3c[nH]c4ccc(C)cc34)c2c1.O=C(O)C(F)(F)F.O=C(O)C(F)(F)F [Compound 15f] | ≤ 0.29 | >37.3 | 29.2 | 0.55 | ≤ 0.29 | 0.5 | 117 | >37 | 1 | 29.2 | ≤ 0.29 | ≤ 0.29 | 58.3 | 3.65
2 | O=C(NCCCNCCCCCCCNCCCNC(=O)c1c[nH]c2c(F)cccc12)c1c[nH]c2c(F)cccc12 [Compound 16c] | > 40 | >40 | > 251 | > 40 | ≤ 0.31 | > 4 | 62.9 | >40 | 1 | 252 | ≤ 0.31 | > 40 | 251 (≈ 142 µg/mL) | > 251
3 | O=C(NCCCNCCCCCCCCNCCCNC(=O)c1c[nH]c2c(F)cccc12)c1c[nH]c2c(F)cccc12 [Compound 16d] | > 40 | >40 | 247 (≈ 143 µg/mL) | > 40 | 9.89 (≈ 5.74 µg/mL) | > 8 | 30.9 | >40 | 1 | 247 | ≤ 0.31 | > 40 | 247 (≈ 143 µg/mL) | 247 (≈ 143 µg/mL)
4 | O=C(NCCCNCCCCCCCCCCNCCCNC(=O)c1c[nH]c2c(F)cccc12)c1c[nH]c2c(F)cccc12 [Compound 16e] | > 38 | >38 | 239 (≈ 145 µg/mL) | > 38 | ≤ 0.3 | 8 | 29.9 | >38 | 1 | 239 | ≤ 0.3 | ≤ 0.3 | 239 (≈ 145 µg/mL) | 239 (≈ 145 µg/mL)
5 | O=C(NCCCNCCCCCCCCCCCCNCCCNC(=O)c1c[nH]c2c(F)cccc12)c1c[nH]c2c(F)cccc12.O=C(O)C(F)(F)F.O=C(O)C(F)(F)F [Compound 16f] | > 37 | >37 | 231 | > 37 | ≤ 0.29 | 1 | 116 | >37 | 1 | 231 | ≤ 0.29 | > 37 | 116 | 231
6 | COc1cccc2c(C(=O)NCCCNCCCCCCCNCCCNC(=O)c3c[nH]c4c(OC)cccc34)c[nH]c12.O=C(O)C(F)(F)F.O=C(O)C(F)(F)F [Compound 17c] | > 39 | >39 | 244 | > 39 | 2.44 | > 8 | 30.5 | >39 | 1 | 244 | ≤ 0.31 | > 39 | > 244 | 122
